# Reference: BindingDB's records for doi:10.7270/Q2MW2FMC (Nmmlsc, 2011)
# Molecular target: T1, Ammonium transporter MEP2 (Saccharomyces cerevisiae (strain ATCC 204508 / S288c), UniProt P41948)
# T1 sequence (P41948 whole entry): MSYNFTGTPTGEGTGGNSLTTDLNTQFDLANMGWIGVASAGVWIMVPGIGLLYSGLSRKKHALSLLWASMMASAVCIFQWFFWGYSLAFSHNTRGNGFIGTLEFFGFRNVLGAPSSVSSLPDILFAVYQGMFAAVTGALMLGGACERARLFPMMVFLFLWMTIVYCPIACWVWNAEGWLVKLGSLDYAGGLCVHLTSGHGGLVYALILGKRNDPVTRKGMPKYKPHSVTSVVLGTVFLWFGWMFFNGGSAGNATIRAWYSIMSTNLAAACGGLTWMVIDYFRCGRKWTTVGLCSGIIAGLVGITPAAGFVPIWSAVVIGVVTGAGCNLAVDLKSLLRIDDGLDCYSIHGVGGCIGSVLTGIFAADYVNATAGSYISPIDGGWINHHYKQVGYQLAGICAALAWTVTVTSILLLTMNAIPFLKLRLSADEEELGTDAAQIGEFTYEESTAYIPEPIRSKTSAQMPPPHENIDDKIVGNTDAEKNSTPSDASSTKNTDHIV
# Assay: compound effects on MEP2-GFP, TOR pathway – S. cerevisiae, multiplex GFP fusions, cherry pick 3, SAR follow-up (AID 488812)
# Conditions: inactive by the depositor's call
row,SMILES,EC50 [µM]
1,CCOC(=O)CS(=O)(=O)c1nc(-c2ccccc2)cc(C(F)(F)F)n1 [2-[4-phenyl-6-(trifluoromethyl)pyrimidin-2-yl]sulfonylacetic acid ethyl ester],68.2
2,Oc1c(Cl)cc(Cl)c2cccnc12 [AS-229],36100
3,Nc1ncnc(Nc2cc(Cl)cc(Cl)c2)c1[N+](=O)[O-] [MLS000581561],74.4
